According to patent US20090030024A1, “THIAZOLES AS FUNGICIDES” (priority 2005, published 2009):
Like-named read-outs stand apart in the source and are kept apart here.

Experiment: logP determination by retention times (calibration with alkan-2-ones)
[1] = logP, * HPLC reversed-phase C18, 40° C., mobile phase 0.1% aqueous formic acid and acetonitrile, linear gradient 10% to 95% acetonitrile

SMILES: CSc1nc(C)c(-c2ccnc(Nc3ccccc3)n2)s1 [Example 318, 4-[4-methyl-2-(methylthio)-1,3-thiazol-5-yl]-N-phenylpyrimidine-2-amine]
- chromatographic logP: 3.34

SMILES: Cc1nc(N)sc1-c1ccnc(Nc2ccc(O)cc2)n1 [Example 323, 4-{[4-(2-amino-4-methyl-1,3-thiazol-5-yl)pyrimidin-2-yl]amino}phenol]
- chromatographic logP: 0.93

SMILES: CCc1nc(C)c(-c2ccnc(Nc3ccc(C(=O)O)cc3)n2)s1 [Example 325, 4-{[4-(2-ethyl-4-methyl-1,3-thiazol-5-yl)pyrimidin-2-yl]amino}benzoic acid]
- chromatographic logP: 2.16

SMILES: COCC(C)Nc1nc(C)c(-c2ccnc(Nc3cc(OC)c(OC)c(OC)c3)n2)s1 (stereo not shown) [Example 332, 4-{2-[(2-methoxy-1-methylethyl)amino]-4-methyl-1,3-thiazol-5-yl}-N-(3,4,5-trimethoxyphenyl)pyrimidine-2-amine]
- chromatographic logP: 1.85

SMILES: COCC(C)Nc1nc(C)c(-c2ccnc(Nc3cccc(OC)c3)n2)s1 (stereo not shown) [Example 333, 4-{2-[(2-methoxy-1-methylethyl)amino]-4-methyl-1,3-thiazol-5-yl}-N-(3-methoxyphenyl)pyrimidine-2-amine]
- chromatographic logP: 2.03

SMILES: COCC(C)Nc1nc(C)c(-c2ccnc(Nc3cccc([N+](=O)[O-])c3)n2)s1 (stereo not shown) [Example 334, 4-{2-[(2-methoxy-1-methylethyl)amino]-4-methyl-1,3-thiazol-5-yl}-N-(3-nitrophenyl)pyrimidine-2-amine]
- chromatographic logP: 2.2

SMILES: Cc1nc(N(C)C2CC2)sc1-c1ccnc(Nc2ccccc2)n1 [Example 341, 4-{2-[cyclopropyl(methyl)amino]-4-methyl-1,3-thiazol-5-yl}-N-phenylpyrimidine-2-amine]
- chromatographic logP: 2.43

SMILES: COc1cc(Nc2nccc(-c3sc(NCC4CCCO4)nc3C)n2)cc(OC)c1OC (stereo not shown) [Example 354, 4-{4-methyl-2-[(tetrahydrofuran-2-ylmethyl)amino]-1,3-thiazol-5-yl}-N-(3,4,5-trimethoxyphenyl)pyrimidine-2-amine]
- chromatographic logP: 1.8

SMILES: Cc1nc(NCC2CCCO2)sc1-c1ccnc(Nc2cccc([N+](=O)[O-])c2)n1 (stereo not shown) [Example 355, 4-{4-methyl-2-[(tetrahydrofuran-2-ylmethyl)amino]-1,3-thiazol-5-yl}-N-(3-nitrophenyl)pyrimidine-2-amine]
- chromatographic logP: 2.13

SMILES: Cc1nc(NCC2CCCO2)sc1-c1ccnc(Nc2ccccc2)n1 (stereo not shown) [Example 356, 4-{4-methyl-2-[(tetrahydrofuran-2-ylmethyl)amino]-1,3-thiazol-5-yl}-N-phenylpyrimidine-2-amine]
- chromatographic logP: 1.87

SMILES: Cc1nc(N(C)c2ccccc2)sc1-c1ccnc(Nc2ccccc2)n1 [Example 357, 4-{4-methyl-2-[methyl(phenyl)amino]-1,3-thiazol-5-yl}-N-phenylpyrimidine-2-amine]
- chromatographic logP: 3.21

SMILES: Cc1nc(C(=O)N(C)C)sc1-c1ccnc(Nc2ccccc2)n1 [Example 373, 5-(2-anilinopyrimidin-4-yl)-N,N,4-trimethyl-1,3-thiazole-2-carboxamide]
- chromatographic logP: 2.72

SMILES: CCOC(=O)c1cccc(Nc2nccc(-c3sc(C4CC4)nc3C)n2)c1 [Example 374, ethyl-3-{[4-(2-cyclopropyl-4-methyl-1,3-thiazol-5-yl)pyrimidin-2-yl]amino}benzoate]
- chromatographic logP: 3.56

SMILES: COC(=O)Nc1ccc(Nc2nccc(-c3sc(C)nc3C)n2)cc1 [Example 380, methyl-(4-{[4-(2,4-dimethyl-1,3-thiazol-5-yl)pyrimidin-2-yl]amino}phenyl)carbamate]
- chromatographic logP: 1.84

SMILES: Cc1nc(C)c(-c2ccnc(Nc3ccc4c(c3)OCCO4)n2)s1 [Example 387, N-(2,3-dihydro-1,4-benzodioxin-6-yl)-4-(2,4-dimethyl-1,3-thiazol-5-yl)pyrimidine-2-amine]
- chromatographic logP: 2.34

SMILES: CCc1nc(C)c(-c2ccnc(Nc3ccc4c(c3)OCCO4)n2)s1 [Example 388, N-(2,3-dihydro-1,4-benzodioxin-6-yl)-4-(2-ethyl-4-methyl-1,3-thiazol-5-yl)pyrimidine-2-amine]
- chromatographic logP: 2.7

SMILES: Cc1nc(C(C)C)sc1-c1ccnc(Nc2ccc3c(c2)OCCO3)n1 [Example 389, N-(2,3-dihydro-1,4-benzodioxin-6-yl)-4-(2-isopropyl-4-methyl-1,3-thiazol-5-yl)pyrimidine-2-amine]
- chromatographic logP: 3.16

SMILES: COCc1nc(C)c(-c2ccnc(Nc3ccc4c(c3)OCCO4)n2)s1 [Example 390, N-(2,3-dihydro-1,4-benzodioxin-6-yl)-4-[2-(methoxymethyl)-4-methyl-1,3-thiazol-5-yl]pyrimidine-2-amine]
- chromatographic logP: 2.49

SMILES: COc1ccc(OC)c(Nc2nccc(-c3sc(C)nc3C)n2)c1 [Example 391, N-(2,5-dimethoxyphenyl)-4-(2,4-dimethyl-1,3-thiazol-5-yl)pyrimidine-2-amine]
- chromatographic logP: 3.03

SMILES: Cc1nc(C(C)C)sc1-c1ccnc(Nc2ccc(F)c(F)c2)n1 [Example 401, N-(3,4-difluorophenyl)-4-(2-isopropyl-4-methyl-1,3-thiazol-5-yl)pyrimidine-2-amine]
- chromatographic logP: 3.95

SMILES: COc1ccc(Nc2nccc(-c3sc(C)nc3C)n2)cc1OC [Example 403, N-(3,4-dimethoxyphenyl)-4-(2,4-dimethyl-1,3-thiazol-5-yl)pyrimidine-2-amine]
- chromatographic logP: 2.16

SMILES: COCc1nc(C)c(-c2ccnc(Nc3ccc(OC)c(OC)c3)n2)s1 [Example 404, N-(3,4-dimethoxyphenyl)-4-[2-(methoxymethyl)-4-methyl-1,3-thiazol-5-yl]pyrimidine-2-amine]
- chromatographic logP: 2.23

SMILES: COc1ccc(Nc2nccc(-c3sc(SC)nc3C)n2)cc1OC [Example 405, N-(3,4-dimethoxyphenyl)-4-[4-methyl-2-(methylthio)-1,3-thiazol-5-yl]pyrimidine-2-amine]
- chromatographic logP: 2.78

SMILES: COc1cc(Nc2nccc(-c3sc(C)nc3C)n2)cc(OC)c1 [Example 406, N-(3,5-dimethoxyphenyl)-4-(2,4-dimethyl-1,3-thiazol-5-yl)pyrimidine-2-amine]
- chromatographic logP: 2.64

SMILES: COc1cc(Nc2nccc(-c3sc(SC)nc3C)n2)cc(OC)c1 [Example 407, N-(3,5-dimethoxyphenyl)-4-[4-methyl-2-(methylthio)-1,3-thiazol-5-yl]pyrimidine-2-amine]
- chromatographic logP [1]: 3.39

SMILES: CC(=O)NCc1cccc(Nc2nccc(-c3sc(C4CC4)nc3C)n2)c1 [Example 414, N-(3-{[4-(2-cyclopropyl-4-methyl-1,3-thiazol-5-yl)pyrimidin-2-yl]amino}benzyl)acetamide]
- chromatographic logP [1]: 1.96

SMILES: CCc1nc(C)c(-c2ccnc(Nc3cccc(NC(C)=O)c3)n2)s1 [Example 415, N-(3-{[4-(2-ethyl-4-methyl-1,3-thiazol-5-yl)pyrimidin-2-yl]amino}phenyl)acetamide]
- chromatographic logP [1]: 2.05

SMILES: COc1ccc(Nc2nccc(-c3sc(C)nc3C)n2)cc1Cl [Example 416, N-(3-chloro-4-methoxyphenyl)-4-(2,4-dimethyl-1,3-thiazol-5-yl)pyrimidine-2-amine]
- chromatographic logP [1]: 2.88

SMILES: COCc1nc(C)c(-c2ccnc(Nc3ccc(OC)c(Cl)c3)n2)s1 [Example 419, N-(3-chloro-4-methoxyphenyl)-4-[2-(methoxymethyl)-4-methyl-1,3-thiazol-5-yl]pyrimidine-2-amine]
- chromatographic logP [1]: 2.91

SMILES: Cc1nc(C)c(-c2ccnc(Nc3cccc(Cl)c3)n2)s1 [Example 421, N-(3-chlorophenyl)-4-(2,4-dimethyl-1,3-thiazol-5-yl)pyrimidine-2-amine]
- chromatographic logP (logP, ** HPLC reversed-phase C18, 43° C., mobile phase 0.1% aqueous phosphoric acid and acetonitrile, linear gradient 10% to 95% acetonitrile): 3.11

SMILES: Cc1nc(C2CC2)sc1-c1ccnc(Nc2cccc(Cl)c2)n1 [Example 422, N-(3-chlorophenyl)-4-(2-cyclopropyl-4-methyl-1,3-thiazol-5-yl)pyrimidine-2-amine]
- chromatographic logP [1]: 3.94

SMILES: CCc1nc(C)c(-c2ccnc(Nc3cccc(Cl)c3)n2)s1 [Example 424, N-(3-chlorophenyl)-4-(2-ethyl-4-methyl-1,3-thiazol-5-yl)pyrimidine-2-amine]
- chromatographic logP [1]: 3.72

SMILES: Cc1nc(C(C)C)sc1-c1ccnc(Nc2cccc(Cl)c2)n1 [Example 425, N-(3-chlorophenyl)-4-(2-isopropyl-4-methyl-1,3-thiazol-5-yl)pyrimidine-2-amine]
- chromatographic logP [1]: 4.25

SMILES: COCc1nc(C)c(-c2ccnc(Nc3cccc(Cl)c3)n2)s1 [Example 432, N-(3-chlorophenyl)-4-[2-(methoxymethyl)-4-methyl-1,3-thiazol-5-yl]pyrimidine-2-amine]
- chromatographic logP [1]: 3.24

SMILES: Cc1nc(C(F)(F)F)c(-c2ccnc(Nc3cccc(Cl)c3)n2)s1 [Example 433, N-(3-chlorophenyl)-4-[2-methyl-4-(trifluoromethyl)-1,3-thiazol-5-yl]pyrimidine-2-amine]
- chromatographic logP [1]: 4.03

SMILES: CNc1nc(C)c(-c2ccnc(Nc3cccc(Cl)c3)n2)s1 [Example 434, N-(3-chlorophenyl)-4-[4-methyl-2-(methylamine)-1,3-thiazol-5-yl]pyrimidine-2-amine]
- logP (* HPLC reversed-phase C18, 40° C., mobile phase 0.1% aqueous formic acid and acetonitrile, linear gradient 10% to 95% acetonitrile): 2.03*

SMILES: CSc1nc(C)c(-c2ccnc(Nc3cccc(Cl)c3)n2)s1 [Example 435, N-(3-chlorophenyl)-4-[4-methyl-2-(methylthio)-1,3-thiazol-5-yl]pyrimidine-2-amine]
- chromatographic logP [1]: 4.08

SMILES: COCC(C)Nc1nc(C)c(-c2ccnc(Nc3cccc(Cl)c3)n2)s1 (stereo not shown) [Example 437, N-(3-chlorophenyl)-4-{2-[(2-methoxy-1-methylethyl)amino]-4-methyl-1,3-thiazol-5-yl}pyrimidine-2-amine]
- chromatographic logP [1]: 2.47

SMILES: Cc1nc(NCC2CCCO2)sc1-c1ccnc(Nc2cccc(Cl)c2)n1 (stereo not shown) [Example 443, N-(3-chlorophenyl)-4-{4-methyl-2-[(tetrahydrofuran-2-ylmethyl)amino]-1,3-thiazol-5-yl}pyrimidine-2-amine]
- chromatographic logP [1]: 2.36

SMILES: COc1cccc(Nc2nccc(-c3sc(SC)nc3C)n2)c1 [Example 449, N-(3-methoxyphenyl)-4-[4-methyl-2-(methylthio)-1,3-thiazol-5-yl]pyrimidine-2-amine]
- chromatographic logP [1]: 3.33
